Measurements reported in article PMC6222633, “Preclinical Pharmacokinetics of Scoparone, Geniposide and Rhein in an Herbal Medicine Using a Validated LC-MS/MS Method” (Molecules : A Journal of Synthetic Chemistry and Natural …, 2018).
Read-outs that look alike come from different tables or passages of the source.

What was measured:
[1] = Pharmacokinetics of scoparone, geniposide and rhein in rat plasma after oral administration of the herbal formula Yin-Chen-Hao-Tang (UPLC-MS/MS); assay type: in vivo, Male Sprague Dawley rats
Experimental: All samples were subjected to chromatographic separation using the Shimadzu UPLC system with an Acquity UPLC BEH C18 column (1.7 µm, 100 mm × 2.1 mm) (Waters Corp., Milford, MA, USA). Samples were maintained in the autosampler at 4 °C with […] of each being injected into the column. Chromatographic separations were conducted at 35 °C with a flow rate of 0.2 mL/min. The mobile phase was 1 mM ammonium acetate with 0.1% formic acid and methanol. A gradient elution was used from 20% methanol (0–2 min) to 95% methanol (3–11 min) then decreased to 20% methanol at 12 min. The overall run time is 20 mins. MRM transitions were scoparone (m/z 207 → 151), geniposide (m/z 406 → 227), rhein (m/z 283 → 240) and carbamazepine (m/z 237 → 194) for quantitation. Data acquisition was controlled with LabSolutions v. 5.60 SP1 software (Shimadzu, Kyoto, Japan).
Sample preparations were made using the protein precipitation process. A forty-five-microliter aliquot of blank plasma sample was mixed with 5 µL of internal standard solution and 100 μL […] was added. The mixture was vortexed for 5 min and centrifuged at 16,000× g for 10 min at 4 °C. The supernatant layer was then collected and transferred through a 0.22 μm membrane filter (0.22 μm, Millex-GV, Millipore, USA) to 1.5 mL autosampler vials. Finally, 20 µL was used for injection into the UPLC-MS/MS system.
Male Sprague Dawley rats weighing 230 ± 30 g were used for the following pharmacokinetic (PK) study. The rats were housed under controlled environmental conditions with free access to food and drinking water up to 12 h prior to experiments. The experimental protocol was approved by the Institutional Animal Ethics Committee of National Yang-Ming University, Taipei, Taiwan (IACUC1070112). All rats divided into two experimental groups were intragastrically fed pharmaceutical herbal product formula Yin-Chen-Hao Tang suspended in normal saline at 1 g/kg or 3 g/kg corresponding to the clinical daily dose of 9.7 g and 29.2 g in a 60 kg adult. Blood samples were collected via a polyethylene tubing (PE-50) implanted priory in the jugular vein of each rat in a heparin-rinsed vial. An aliquot of 100–120 µL blood was collected at time intervals of 0, 5, 15, 30, 60, 90, 120, 180, 240, 300 and 360 min after oral administration of the herbal product. Each group contained a total of six rats to diminish individual variation. All blood samples were immediately centrifuged as mentioned above (16,000× g for 10 min at 4 °C) and stored at −20 °C until analysis.
The pharmacokinetic parameters were calculated using the pharmacokinetic software WinNonlin Standard Edition, version 1.1 (Scientific Consulting Inc., Apex, NC, USA). The area under the plasma concentration-time curve (AUC), terminal elimination half-life (t1/2) and oral clearance (CL) were estimated using non-compartmental analysis. The maximum plasma concentration (Cmax) and time to reach the maximum concentration (Tmax) was directly applied from the plasma concentration-time curve. Pharmacokinetic parameters of each individual data set were calculated using WinNonlin Standard Edition, version 1.1 (Pharsight Corp., Mountain View, CA, USA). Statistics and graphics were performed with SPSS version 18.0 (SPSS Inc., Chicago, IL, USA) and SigmaPlot 10.0 software (Systat Software Inc., San Jose, CA, USA). All values were expressed as the mean ± standard deviation (S.D.).

[2] = design: method as in PMID 21945452; details: oral administration of 50–200 mg of rhein, healthy Chinese subjects; cited from earlier work
[3] = male, Sprague Dawley, rat, in vivo
[4] = male, Sprague Dawley, rat, in vivo, po, 1 g/kg
[5] = male, Sprague Dawley, rat, in vivo, po, 3 g/kg
[6] = rat plasma, YCHT 3 g/kg p.o., mean ± S.D., n = 6
[7] = rat plasma, YCHT 3 g/kg vs 1 g/kg p.o.

SMILES | increase of AUC in the 3 g/kg group compared to the 1 g/kg group [1, 3] [fold] | ratio of AUC adjusted to the administered dose, high-dose group vs low-dose group [1, 3] [times] | AUC [1, 4] [ng·h/mL] | CL (clearance) [1, 4] [mL/min/kg] | Cmax [1, 4] [ng/mL] | MRT [1, 4] [h] | Tmax [1, 4] [h] | half-life [1, 4] [h] | AUC [1, 5] [ng·h/mL] | AUC/dose [1, 5] | CL (clearance) [1, 5] [mL/min/kg] | Cmax [1, 5] [ng/mL] | MRT [1, 5] [h] | Tmax [1, 5] [h] | half-life [1, 5] [h] | also measured
COc1cc2ccc(=O)oc2cc1OC [Scoparone, 6,7-dimethoxycoumarin] | 7.5 | 2.5 | 15.9 | 394.7 ± 209.4 | 18 ± 12 | 0.317 | 0.233 | 0.433 ± 0.0833 | 119 | 2.374 ± 1.126 | 131.5 ± 123.6 | 132 ± 137 | 0.85 | 0.35 | 1.15 ± 0.917 | 
COC(=O)C1=CO[C@@H](O[C@@H]2O[C@H](CO)[C@@H](O)[C@H](O)[C@H]2O)[C@@H]2C(CO)=CC[C@H]12 [Geniposide, geniposide] |  |  |  |  |  |  |  |  |  |  |  |  |  |  |  | AUC ([1]; male, Sprague Dawley, in vivo, po, rat plasma, YCHT 1 g/kg p.o., mean ± S.D., n = 6, read-out: AUC (converted)): 313 ng·h/mL; Cmax ([1]; male, Sprague Dawley, in vivo, po, rat plasma, YCHT 1 g/kg p.o., mean ± S.D., n = 6, read-out: Cmax): 145 ± 251 ng/mL; MRT ([1]; male, Sprague Dawley, in vivo, po, rat plasma, YCHT 1 g/kg p.o., mean ± S.D., n = 6, read-out: MRT (mean retention time) (converted)): 1.92 h; Tmax ([1]; male, Sprague Dawley, in vivo, po, rat plasma, YCHT 1 g/kg p.o., mean ± S.D., n = 6, read-out: Tmax (converted)): 1.35 h; half-life ([1]; male, Sprague Dawley, in vivo, po, rat plasma, YCHT 1 g/kg p.o., mean ± S.D., n = 6, read-out: t1/2 (elimination half-life)): 1.33 ± 0.3 h; AUC ([1]; male, Sprague Dawley, in vivo, po, rat plasma, YCHT 3 g/kg p.o., mean ± S.D., n = 6, read-out: AUC (converted)): 1580 ng·h/mL; Cmax ([1]; male, Sprague Dawley, in vivo, po, rat plasma, YCHT 3 g/kg p.o., mean ± S.D., n = 6, read-out: Cmax): 604 ± 256 ng/mL; MRT ([1]; male, Sprague Dawley, in vivo, po, rat plasma, YCHT 3 g/kg p.o., mean ± S.D., n = 6, read-out: MRT (mean retention time) (converted)): 2.53 h; Tmax ([1]; male, Sprague Dawley, in vivo, po, rat plasma, YCHT 3 g/kg p.o., mean ± S.D., n = 6, read-out: Tmax (converted)): 1.35 h; half-life ([1]; male, Sprague Dawley, in vivo, po, rat plasma, YCHT 3 g/kg p.o., mean ± S.D., n = 6, read-out: t1/2 (elimination half-life)): 1.43 ± 0.483 h; concentration at 180 min ([1]; male, Sprague Dawley, rat, in vivo, typical plasma sample collected 180 min after oral YCHT 3 g/kg): 287 ng/mL; CL (clearance) ([1]; rat plasma, YCHT 1 g/kg p.o., mean ± S.D., n = 6): 1403 ± 1018 mL/min/kg; AUC/dose [1, 6]: 31.63 ± 10.76; CL (clearance) [1, 6]: 259.8 ± 109.2 mL/min/kg; increase of AUC in the 3 g/kg group compared to the 1 g/kg group [1, 7]: 5.1 fold; ratio of AUC adjusted to the administered dose, high-dose group vs low-dose group [1, 7]: 1.7 times
O=C(O)c1cc(O)c2c(c1)C(=O)c1cccc(O)c1C2=O [Rhein, rhein] | 6.8 | 2.3 | 485 | 3.710 ± 1.366 | 311 ± 166 | 1.77 | 0.2 | 2.02 ± 0.767 | 3310 | 66.18 ± 17.09 | 1.483 ± 0.357 | 1660 ± 805 | 1.93 | 0.383 | 1.73 ± 1.15 | pharmacokinetics, dose linearity [2]: Linear pharmacokinetics
